From patent US6908905B2, “N-substituted pyrazole-O-glycoside derivatives and therapeutic agent for diabetes containing the same” (Ajinomoto Co., Inc., priority 2001, dated 2005)

Assays:
rat = conditions: oral administration, increase of sugar excreted in urine, decrease of blood sugar; cited from earlier work
male Wistar rats = experiment: Evaluation of effect on urinary excretion of sugar in rats (Example 8); type: in vivo; conditions: rat, oral, 24 hours
Experimental: Five-week-old male Wistar rats (purchased from Charles River Japan, Inc.) were housed in metabolic cages for about one week prior to the experiment. A test compound was suspended in olive oil, so that solutions of the compound with concentrations of […] were prepared to have a dose of 5 ml/kg body weight of the rat. After the rats were not fed for 4 hours, the test compound was orally administered to the rats at a dosage of 10, 30 and 100 mg/kg at 11 a.m. Urine of the rat was collected for a given period of time from the time immediately after the administration to 24 hours after the administration, and the urine volume was measured. Subsequently, the glucose concentration in urine was determined by the glucose oxidase method and the daily amount of glucose excreted in urine per individual was calculated.
As the positive control compound, 3-(benzo[b]furan-5-yl)-2′,6′-dihydroxy-4′-methylpropiophenone 2′-O-(6-O-methoxycarbonyl-β-D-glucopyranoside) was used.

Question: Which “dose needed to exhibit the efficacy” value (rat) does the source give for `COC(=O)OC[C@H]1O[C@@H](Oc2cc(C)cc(O)c2C(=O)CCc2ccc3occc3c2)[C@H](O)[C@@H](O)[C@@H]1O` [Positive Control Compound, 3-(benzo[b]furan-5-yl)-2′,6′-dihydroxy-4′-methylpropiophenone 2′-O-(6-O-methoxycarbonyl-β-D-glucopyranoside)] here?
Answer: Its value is 100 mg/kg.

Question: And the “The amount of glucose excreted in urine” value (male Wistar rats; 10 mg/kg)?
Answer: The value was 2 mg.

Question: And the “The amount of glucose excreted in urine” value (male Wistar rats; 30 mg/kg)?
Answer: Its value is 78 mg.

Question: What about the “The amount of glucose excreted in urine” value (male Wistar rats; 100 mg/kg) of the same compound?
Answer: Its value is 274 mg.
